Measured values: PubChem BioAssay AID1919016 (Molecular Pharmacology Branch, DTP, NCI, 2023)

Test system: NCI-H196 complex spheroid growth, percent test/control
Test: Anticancer human tumor NCI-H196 cell line growth inhibition [AhR];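 also: seven days of drug exposure starting three days after plating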;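 as to viability, T/C: 100% = DMSO vehicle control wells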
Settings: for IC50: curve of first compound; for viability, T/C: stronger effect = lower value
In short: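 Spheroids combined tumor cells with HUVEC endothelial cells and human MSCs as stroma. AhR antagonists were paired with standard or investigational drugs, each dosed in half-log steps down from near clinical Cmax, or from 10 microM where Cmax was unknown.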

[1] = second compound 0.1 µM, first compound 0.00316 µM
[2] = second compound 0.1 µM, first compound 0.01 µM
[3] = second compound 0.1 µM, first compound 0.0316 µM
[4] = second compound 0.1 µM, first compound 0.1 µM
[5] = second compound 0.1 µM, first compound 0.316 µM
[6] = second compound 0.1 µM, first compound 1 µM
[7] = second compound 0.316 µM, first compound 0.00316 µM
[8] = second compound 0.316 µM, first compound 0.01 µM
[9] = second compound 0.316 µM, first compound 0.0316 µM
[10] = second compound 0.316 µM, first compound 0.1 µM
[11] = second compound 0.316 µM, first compound 0.316 µM
[12] = second compound 0.316 µM, first compound 1 µM
[13] = second compound 1 µM, first compound 0.00316 µM
[14] = second compound 1 µM, first compound 0.01 µM
[15] = second compound 1 µM, first compound 0.0316 µM
[16] = second compound 1 µM, first compound 0.1 µM
[17] = second compound 1 µM, first compound 0.316 µM
[18] = second compound 1 µM, first compound 1 µM
[19] = second compound 3.16 µM, first compound 0.00316 µM
[20] = second compound 3.16 µM, first compound 0.01 µM
[21] = second compound 3.16 µM, first compound 0.0316 µM
[22] = second compound 3.16 µM, first compound 0.1 µM
[23] = second compound 3.16 µM, first compound 0.316 µM
[24] = second compound 3.16 µM, first compound 1 µM
[25] = second compound 10 µM, first compound 0.00316 µM
[26] = second compound 10 µM, first compound 0.01 µM
[27] = second compound 10 µM, first compound 0.0316 µM
[28] = second compound 10 µM, first compound 0.1 µM
[29] = second compound 10 µM, first compound 0.316 µM
[30] = second compound 10 µM, first compound 1 µM

Q: Which results are given for CC1COCCN1c1cc(-c2ccnn2C)c2ccnc(-c3ccn[nH]3)c2n1 (stereo not given) + Cc1cncc(-c2nc(NCCc3c[nH]c4ccccc34)c3ncn(C(C)C)c3n2)c1?
A: IC50 (second compound 0.1 µM): > 1 µM; IC50 (second compound 0.316 µM): > 1 µM; IC50 (second compound 1 µM): > 1 µM; IC50 (second compound 3.16 µM): > 1 µM; IC50 (second compound 10 µM): > 1 µM; viability, T/C [1]: 105%; viability, T/C [2]: 96.6%; viability, T/C [3]: 86.5%; viability, T/C [4]: 70%; viability, T/C [5]: 62.4%; viability, T/C [6]: 60.7%; viability, T/C [7]: 95.5%; viability, T/C [8]: 94.1%; viability, T/C [9]: 86.7%; viability, T/C [10]: 71.2%; viability, T/C [11]: 64.5%; viability, T/C [12]: 52.7%; viability, T/C [13]: 103%; viability, T/C [14]: 97.7%; viability, T/C [15]: 96.4%; viability, T/C [16]: 79.4%; viability, T/C [17]: 70.9%; viability, T/C [18]: 57.9%; viability, T/C [19]: 106%; viability, T/C [20]: 123%; viability, T/C [21]: 101%; viability, T/C [22]: 88.8%; viability, T/C [23]: 77.6%; viability, T/C [24]: 58.2%; viability, T/C [25]: 68.1%; viability, T/C [26]: 80.7%; viability, T/C [27]: 75.7%; viability, T/C [28]: 66%; viability, T/C [29]: 80%; viability, T/C [30]: 71.8%

Q: Which results are given for CCc1c2c(nc3ccc(O)cc13)-c1cc3c(c(=O)n1C2)COC(=O)[C@]3(O)CC + Cc1ccccc1N=Nc1ccc(NC(=O)c2ccnn2C)c(C)c1?
A: IC50 (second compound 0.1 µM): > 0.3 µM; IC50 (second compound 0.316 µM): > 0.3 µM; IC50 (second compound 1 µM): > 0.3 µM; IC50 (second compound 3.16 µM): > 0.3 µM; IC50 (second compound 10 µM): > 0.3 µM; viability, T/C (second compound 0.1 µM, first compound 0.000949 µM): 97%; viability, T/C (second compound 0.1 µM, first compound 0.003 µM): 101%; viability, T/C (second compound 0.1 µM, first compound 0.00949 µM): 103%; viability, T/C (second compound 0.1 µM, first compound 0.03 µM): 95.3%; viability, T/C (second compound 0.1 µM, first compound 0.0949 µM): 93.3%; viability, T/C (second compound 0.1 µM, first compound 0.3 µM): 81.2%; viability, T/C (second compound 0.316 µM, first compound 0.000949 µM): 96.3%; viability, T/C (second compound 0.316 µM, first compound 0.003 µM): 103%; viability, T/C (second compound 0.316 µM, first compound 0.00949 µM): 106%; viability, T/C (second compound 0.316 µM, first compound 0.03 µM): 89.7%; viability, T/C (second compound 0.316 µM, first compound 0.0949 µM): 89.2%; viability, T/C (second compound 0.316 µM, first compound 0.3 µM): 85.2%; viability, T/C (second compound 1 µM, first compound 0.000949 µM): 89.8%; viability, T/C (second compound 1 µM, first compound 0.003 µM): 106%; viability, T/C (second compound 1 µM, first compound 0.00949 µM): 93.8%; viability, T/C (second compound 1 µM, first compound 0.03 µM): 100%; viability, T/C (second compound 1 µM, first compound 0.0949 µM): 99.2%; viability, T/C (second compound 1 µM, first compound 0.3 µM): 70.7%; viability, T/C (second compound 3.16 µM, first compound 0.000949 µM): 89.4%; viability, T/C (second compound 3.16 µM, first compound 0.003 µM): 91.3%; viability, T/C (second compound 3.16 µM, first compound 0.00949 µM): 103%; viability, T/C (second compound 3.16 µM, first compound 0.03 µM): 88.9%; viability, T/C (second compound 3.16 µM, first compound 0.0949 µM): 82.7%; viability, T/C (second compound 3.16 µM, first compound 0.3 µM): 74.3%; viability, T/C (second compound 10 µM, first compound 0.000949 µM): 89%; viability, T/C (second compound 10 µM, first compound 0.003 µM): 108%; viability, T/C (second compound 10 µM, first compound 0.00949 µM): 93.3%; viability, T/C (second compound 10 µM, first compound 0.03 µM): 94.9%; viability, T/C (second compound 10 µM, first compound 0.0949 µM): 96%; viability, T/C (second compound 10 µM, first compound 0.3 µM): 76.1%

Q: For Nc1ncn(C2CC(O)C(CO)O2)c(=O)n1 (stereo not given) + Cc1ccccc1N=Nc1ccc(NC(=O)c2ccnn2C)c(C)c1, which IC50 (second compound 0.1 µM) is on record?
A: Its IC50 is greater than 1 µM.

Q: And the IC50 (second compound 0.316 µM)?
A: Its IC50 is greater than 1 µM.

Q: And the IC50 (second compound 1 µM)?
A: The IC50 was greater than 1 µM.

Q: What about the IC50 (second compound 3.16 µM) of the same molecule?
A: The IC50 was greater than 1 µM.

Q: What about the IC50 (second compound 10 µM) of the same molecule?
A: The IC50 was greater than 1 µM.

Q: And the viability, T/C [1]?
A: The viability, T/C was 92.6%.

Q: And the viability, T/C [2]?
A: The viability, T/C was 105%.

Q: What about the viability, T/C [3] of the same molecule?
A: The viability, T/C was 94.7%.

Q: And the viability, T/C [4]?
A: Its viability, T/C is 94.4%.

Q: And the viability, T/C [5]?
A: The viability, T/C was 104%.

Q: What about the viability, T/C [6] of the same molecule?
A: The viability, T/C was 96.6%.

Q: What about the viability, T/C [7] of the same molecule?
A: Its viability, T/C is 104%.

Q: What about the viability, T/C [8] of the same molecule?
A: Its viability, T/C is 104%.

Q: And the viability, T/C [9]?
A: Its viability, T/C is 108%.

Q: What about the viability, T/C [10] of the same molecule?
A: The viability, T/C was 103%.

Q: And the viability, T/C [11]?
A: Its viability, T/C is 108%.

Q: What about the viability, T/C [12] of the same molecule?
A: The viability, T/C was 96.4%.

Q: What about the viability, T/C [13] of the same molecule?
A: Its viability, T/C is 88.7%.

Q: What about the viability, T/C [14] of the same molecule?
A: Its viability, T/C is 104%.

Q: What about the viability, T/C [15] of the same molecule?
A: Its viability, T/C is 106%.

Q: What about the viability, T/C [16] of the same molecule?
A: Its viability, T/C is 101%.

Q: And the viability, T/C [17]?
A: Its viability, T/C is 84.9%.

Q: And the viability, T/C [18]?
A: Its viability, T/C is 94.5%.

Q: What about the viability, T/C [19] of the same molecule?
A: The viability, T/C was 97%.

Q: What about the viability, T/C [20] of the same molecule?
A: Its viability, T/C is 86.9%.

Q: And the viability, T/C [21]?
A: Its viability, T/C is 105%.

Q: What about the viability, T/C [22] of the same molecule?
A: The viability, T/C was 86.4%.

Q: What about the viability, T/C [23] of the same molecule?
A: The viability, T/C was 92.5%.

Q: What about the viability, T/C [24] of the same molecule?
A: Its viability, T/C is 89.8%.

Q: What about the viability, T/C [25] of the same molecule?
A: Its viability, T/C is 90%.

Q: And the viability, T/C [26]?
A: Its viability, T/C is 97.3%.

Q: And the viability, T/C [27]?
A: Its viability, T/C is 87.6%.

Q: What about the viability, T/C [28] of the same molecule?
A: Its viability, T/C is 86.7%.

Q: What about the viability, T/C [29] of the same molecule?
A: Its viability, T/C is 78.7%.

Q: And the viability, T/C [30]?
A: Its viability, T/C is 83%.
